1 compound from PMC12775434, “Ultra-large virtual screening unveils potent agonists of the neuromodulatory orphan receptor GPR139” (Nature Communications, 2025) can be followed below.

Common to all, as to type: cell-based
The target in test [1] is T1, GPR139 (Homo sapiens, UniProt Q6DWJ6).
T1 sequence (Q6DWJ6 1-353): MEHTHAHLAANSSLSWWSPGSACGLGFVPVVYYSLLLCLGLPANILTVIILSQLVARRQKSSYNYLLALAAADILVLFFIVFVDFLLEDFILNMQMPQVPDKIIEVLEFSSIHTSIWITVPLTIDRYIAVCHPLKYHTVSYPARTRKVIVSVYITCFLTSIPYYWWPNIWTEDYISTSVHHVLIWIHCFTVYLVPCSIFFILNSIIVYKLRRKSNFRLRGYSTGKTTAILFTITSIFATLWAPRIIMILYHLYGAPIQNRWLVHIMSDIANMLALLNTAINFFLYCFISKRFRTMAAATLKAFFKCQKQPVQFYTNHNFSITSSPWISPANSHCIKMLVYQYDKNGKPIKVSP
Kind of test: Ca2+ mobilization assay, agonist mode, stable GPR139-CHOk1 cell line. Put shortly: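 Agonist activity of compounds is assessed in stably transfected CHO-K1 cells using the calcium dye Fluo-4 at 37 °C in HEPES-buffered HBSS (pH 7.4). Efficacy is expressed relative to the reference agonist Lundbeck Cmp 1a, set as 100%.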
Background: A change in cytosolic calcium serves as a functional read-out for many receptors and channels.

The target of test [2] is T1, GPR139. Kind of test: Ca2+ mobilization assay, antagonist mode (EC80 800 nM Lundbeck Cmp 1a after 20 min preincubation), GPR139-CHOk1. The conditions noted are these: individual replicates (Supplementary Figure 1). Put shortly: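 Antagonist mode: 800 nM (EC80) reference agonist Lundbeck Cmp 1a added following 20 min pre-incubation with 10 µM compound. GPR139-CHOk1 cells, Fluo-4 dye, probenecid-containing HEPES buffer pH 7.4; intracellular Ca2+ measured at 37 °C (ex 485, em 525 nm).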

Test [3] deals with T2, human muscarinic acetylcholine M1 receptor (M1R) (Homo sapiens, UniProt P11229).
T2 sequence (P11229 1-460): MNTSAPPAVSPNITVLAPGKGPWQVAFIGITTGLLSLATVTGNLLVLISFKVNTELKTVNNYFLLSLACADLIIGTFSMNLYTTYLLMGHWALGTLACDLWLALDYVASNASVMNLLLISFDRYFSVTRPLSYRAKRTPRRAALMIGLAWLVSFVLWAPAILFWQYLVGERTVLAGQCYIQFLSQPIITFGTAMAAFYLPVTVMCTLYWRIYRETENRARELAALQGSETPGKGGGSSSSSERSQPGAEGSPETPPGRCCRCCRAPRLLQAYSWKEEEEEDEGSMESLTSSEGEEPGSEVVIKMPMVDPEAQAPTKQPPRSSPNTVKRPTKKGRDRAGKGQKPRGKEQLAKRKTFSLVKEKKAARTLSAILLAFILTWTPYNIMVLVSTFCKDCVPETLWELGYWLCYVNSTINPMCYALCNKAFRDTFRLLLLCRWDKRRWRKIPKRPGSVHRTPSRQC
Kind of test: Ca2+ mobilization counter-screen in M1R-CHOk1 cells. The following applies: individual replicates (Supplementary Figure 2). Put shortly:
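Fluorescence (ex 485 nm, em 525 nm) recorded at 37 °C after automated compound addition to CHO-K1 cells stably expressing M1R. Cells were dye-loaded with 2 µM Fluo-4 AM for 1 h at 37 °C, with 2.5 mM probenecid present; final DMSO at most 0.3%.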

Values joined by “and” are separate entries in the source; they are usually repeats but may differ in a detail not shown here. Equal entries are not always repeated.

The EC50 is the concentration at which the effect is half-maximal. One may read the Emax as the maximal effect, on the per cent scale that the assay sets. Regarding `COC(=O)c1cc(NC(=O)NC(C)c2cccc(F)c2F)ccc1C` (stereo not shown) [Compound 2, COC(=O)C=1C=C(NC(=O)NC(C)C=2C=CC=C(F)C2F)C=CC1C], the “Ca2+ signal (% of Cmp 1a)” value at GPR139 [1] (0.1 µM, individual replicates (Supplementary Figure 3)) is 18.1 % of Cmp 1a and 15.9 % of Cmp 1a; on GPR139 [1] (1 µM, individual replicates (Supplementary Figure 3)) it was 65.0 % of Cmp 1a and 52.8 % of Cmp 1a; on GPR139 [1] (10 µM, individual replicates (Supplementary Figure 3)), 86.8 % of Cmp 1a and 54.5 % of Cmp 1a; on GPR139 [1] (Agonist mode, individual replicates (Supplementary Figure 1)) it was 81 % of Cmp 1a and 65 % of Cmp 1a and 84 % of Cmp 1a; on GPR139 [1] (log [Compound] M -4.5, replicate experiments), 74 % of Cmp 1a and 103 % of Cmp 1a and 90 % of Cmp 1a; on GPR139 [1] (log [Compound] M -5.0, replicate experiments), 60 % of Cmp 1a and 92 % of Cmp 1a and 78 % of Cmp 1a. Further, the “Ca2+ signal (% of Cmp 1a)” value is 65 % of Cmp 1a and 88 % of Cmp 1a and 71 % of Cmp 1a at GPR139 [1] (log [Compound] M -5.5, replicate experiments); 66 % of Cmp 1a and 74 % of Cmp 1a and 68 % of Cmp 1a on GPR139 [1] (log [Compound] M -6.0, replicate experiments); 25 % of Cmp 1a and 58 % of Cmp 1a and 38 % of Cmp 1a at GPR139 [1] (log [Compound] M -6.5, replicate experiments); 16 % of Cmp 1a and 20 % of Cmp 1a and 28 % of Cmp 1a on GPR139 [1] (log [Compound] M -7.0, replicate experiments); -9 % of Cmp 1a and -8 % of Cmp 1a and 6 % of Cmp 1a at GPR139 [1] (log [Compound] M -7.5, replicate experiments); -12 % of Cmp 1a and -7 % of Cmp 1a and 2.84 % of Cmp 1a at GPR139 [1] (log [Compound] M -8.0, replicate experiments). In addition, the “Ca2+ signal (% of Cmp 1a)” value is -1.88 % of Cmp 1a and 9 % of Cmp 1a and 21 % of Cmp 1a at GPR139 [1] (log [Compound] M -8.5, replicate experiments); -14 % of Cmp 1a and 6 % of Cmp 1a and 7 % of Cmp 1a on GPR139 [1] (log [Compound] M -9.0, replicate experiments); 81 % of Cmp 1a and 65 % of Cmp 1a and 84 % of Cmp 1a on GPR139 [1] (primary screen, 10 µM compound, agonist mode, three columns = independent experiments); 21.0785 % of Cmp 1a and 18.2142 % of Cmp 1a and 25.1866 % of Cmp 1a on GPR139 [2]. Further, the EC50 at GPR139 [1] (GPR139-CHOk1, read-out: EC50, Ca2+ mobilization) was determined as 320 nM. In addition, on GPR139 [1] (Supplementary Table 2, normalized to Lundbeck Cmp 1a, mean ± SEM, read-out: Emax (%) Ca2+), the Emax turned out to be 83 ± 6%. In addition, the “Ca2+ signal (% of Carbachol)” value in test [3] was -10 % of Carbachol and 1.81 % of Carbachol.
